Our source for the CLint scaled and half-life values is patent publication US10751339B2, “Substituted aminopyrimidine compounds and methods of use” (SUNSHINE LAKE PHARMA CO., LTD., priority 2018, dated 2020).

A short description of data set [1]: Compound stability in rat liver microsomes. It is filed as in vitro ADME. The following applies: pH 7.4; for CLint scaled at 5 μM: liver microsomes, in vivo CLint extrapolated from rat liver microsome incubation; for half-life at 5 μM: rat liver microsomes 0.5 mg protein/mL, compound 5 μM, NADPH, 37° C., read-out: Rat T1/2. The procedure:
(§1) Human or rat liver microsomes incubations were conducted in duplicate in polypropylene tubes. The typical incubation mixtures consisted of human or rat liver microsomes (0.5 mg protein/mL), compounds of interest (5 μM) and NADPH (1.0 mM) in a total volume of 200 μL potassium phosphate buffer (PBS, 100 mM, pH 7.4). Compounds were dissolved in DMSO and diluted with PBS such that the final concentration of DMSO was 0.05%. The enzymatic reactions were commenced with the addition of protein after a 3-min preincubation and incubated in a water bath open to the air at 37° C. Reactions were terminated at various time points (0, 5, 10, 15, 30, 60 min) by adding equal volume of ice-cold acetonitrile. The samples were stored at −80° C. until LC/MS/MS assays.
(§2) The concentrations of compounds in the incubation mixtures of human or rat liver microsomes were determined by a LC/MS/MS method. The ranges of the linearity in the concentration range were determined for each tested compounds.
(§3) A parallel incubation was performed using denatured microsomes as the negative control, and reactions were terminated at various time points (0, 15, 60 min) after incubation at 37° C.
(§4) Dextromethorphan (70 μM) was selected as the positive control, and reactions were terminated at various time points (0, 5, 10, 15, 30, 60 min) after incubation at 37° C. Both positive and negative control samples were included in each assay to ensure the integrity of the microsomal incubation system.
(§5) The concentrations of compounds in human or rat liver microsome incubations were plotted as a percentage of the relevant zero time point control for each reaction.

Data set [2] can be described thus: Compound stability in human liver microsomes. It is filed as in vitro ADME. As to conditions: pH 7.4; for CLint scaled at 5 μM: liver microsomes, in vivo CLint extrapolated from human liver microsome incubation; for half-life at 5 μM: human liver microsomes 0.5 mg protein/mL, compound 5 μM, NADPH, 37° C., read-out: Human T1/2. The procedure:
as §1, §2, §3, §4, §5

Structures are written as SMILES.

The term CLint scaled denotes a measure of how fast metabolising enzymes remove a compound, apart from limits set by blood flow. For `C#Cc1cccc2nc([C@H](C)Nc3ncnc(N)c3-c3ncn(C)n3)n(-c3ccccc3)c(=O)c12` [Example 49, (S)-2-(1-((6-amino-5-(1-methyl-1H-1,2,4-triazol-3-yl)pyrimidin-4-yl)amino)ethyl)-5-ethynyl-3-phenylquinazolin-4(3H)-one], the CLint scaled at 5 μM in data set [1] was 107 mL/min/kg; in data set [2], 259 mL/min/kg. Also, the figures for the half-life at 5 μM in data set [1] and in data set [2] were 23.2 min and 6.7 min, respectively.

Regarding `CC(O)C#Cc1cccc2nc([C@H](C)Nc3ncnc(N)c3-c3nnn(C)n3)n(-c3ccccc3)c(=O)c12` (stereo partly drawn) [Example 8, 2-((S)-1-((6-amino-5-(2-methyl-2H-tetrazol-5-yl)pyrimidin-4-yl)amino)ethyl)-5-(3-hydroxybut-1-yn-1-yl)-3-phenylquinazolin-4(3H)-one], in data set [1], the CLint scaled at 5 μM was 32.9 mL/min/kg and the half-life at 5 μM is 75.4 min. Also, in data set [2], the intrinsic clearance (CLint scaled) at 5 μM was 15.7 mL/min/kg and the half-life at 5 μM worked out at 111 min.

In the case of `Cc1noc(-c2c(N)ncnc2N[C@@H](C)c2nc3cccc(C#CCO)c3c(=O)n2C2CC2)n1` [Example 30, (S)-2-(1-((6-amino-5-(3-methyl-1,2,4-oxadiazol-5-yl)pyrimidin-4-yl)amino)ethyl)-3-cyclopropyl-5-(3-hydroxyprop-1-yn-1-yl)quinazolin-4(3H)-one], in data set [1], the CLint scaled at 5 μM was 22.1 mL/min/kg and the half-life at 5 μM came out at 112 min. For the same molecule, in data set [2], the CLint scaled at 5 μM was 26.2 mL/min/kg and the half-life at 5 μM is 66.4 min.

On to `C[C@H](Nc1ncnc(N)c1-c1nnn(C)n1)c1nc2cccc(C#CCO)c2c(=O)n1-c1ccccc1` [Example 39, (S)-2-(1-((6-amino-5-(2-methyl-2H-tetrazol-5-yl)pyrimidin-4-yl)amino)ethyl)-5-(3-hydroxyprop-1-yn-1-yl)-3-phenylquinazolin-4(3H)-one], for which the results for the intrinsic clearance (CLint scaled) at 5 μM in data set [1] and in data set [2] were 43 mL/min/kg and 28.9 mL/min/kg, respectively. Also, the half-life at 5 μM in data set [1] was 57.7 min; in data set [2] it was 60.2 min.

As to `C#Cc1cccc2nc([C@H](C)Nc3ncnc(N)c3-c3noc(C)n3)n(C3CC3)c(=O)c12` [Example 51, (S)-2-(1-((6-amino-5-(5-methyl-1,2,4-oxadiazol-3-yl)pyrimidin-4-yl)amino)ethyl)-3-cyclopropyl-5-ethynylquinazolin-4(3H)-one], in data set [1], the intrinsic metabolic clearance (CLint scaled) at 5 μM is 133 mL/min/kg and the half-life at 5 μM is 18.7 min. In addition, in data set [2], the CLint scaled at 5 μM is 118 mL/min/kg and the half-life at 5 μM was 14.8 min.

`C#Cc1cccc2nc([C@H](C)Nc3ncnc(N)c3-c3ncn(C)n3)n(C3CC3)c(=O)c12` [Example 53, (S)-2-(1-((6-amino-5-(1-methyl-1H-1,2,4-triazol-3-yl)pyrimidin-4-yl)amino)ethyl)-3-cyclopropyl-5-ethynylquinazolin-4(3H)-one]: the CLint scaled at 5 μM is 70.9 mL/min/kg in data set [1] and 74.5 mL/min/kg in data set [2]. The half-life at 5 μM in data set [1] turned out to be 35 min; in data set [2], 23.4 min.

For `Cc1nc(-c2c(N)ncnc2N[C@@H](C)c2nc3cccc(C#CC(C)O)c3c(=O)n2-c2ccccc2)no1` (stereo partly drawn) [Example 6, 2-((S)-1-((6-amino-5-(5-methyl-1,2,4-oxadiazol-3-yl)pyrimidin-4-yl)amino)ethyl)-5-(3-hydroxybut-1-yn-1-yl)-3-phenylquinazolin-4(3H)-one], in data set [1], the CLint scaled at 5 μM was 41.6 mL/min/kg and the half-life at 5 μM is 59.7 min. In addition, in data set [2], the CLint scaled at 5 μM is 24.2 mL/min/kg and the half-life at 5 μM is 71.9 min.

Regarding `C#Cc1cccc2nc([C@H](C)Nc3ncnc(N)c3-c3nc(C)no3)n(-c3ccccc3)c(=O)c12` [Example 44, (S)-2-(1-((6-amino-5-(3-methyl-1,2,4-oxadiazol-5-yl)pyrimidin-4-yl)amino)ethyl)-5-ethynyl-3-phenylquinazolin-4(3H)-one], the intrinsic clearance (CLint scaled) at 5 μM is 169 mL/min/kg in data set [1] and 297 mL/min/kg in data set [2]. Also, the half-life at 5 μM in data set [1] is 14.7 min; in data set [2], 5.85 min.

As for `C#Cc1cccc2nc([C@H](C)Nc3ncnc(N)c3-c3nnc(C)o3)n(-c3ccccc3)c(=O)c12` [Example 45, (S)-2-(1-((6-amino-5-(5-methyl-1,3,4-oxadiazol-2-yl)pyrimidin-4-yl)amino)ethyl)-5-ethynyl-3-phenylquinazolin-4(3H)-one], the figures for the CLint scaled at 5 μM in data set [1] and in data set [2] were 87.2 mL/min/kg and 301 mL/min/kg, respectively. The half-life at 5 μM in data set [1] stood at 28.5 min; in data set [2] it was 5.77 min.

For the molecule `CC#Cc1cccc2nc([C@H](CC)Nc3ncnc(N)c3-c3nnc(C)o3)n(C3CC3)c(=O)c12` [Example 27, (S)-2-(1-((6-amino-5-(5-methyl-1,3,4-oxadiazol-2-yl)pyrimidin-4-yl)amino)propyl)-3-cyclopropyl-5-(prop-1-yn-1-yl)quinazolin-4(3H)-one], in data set [1], the CLint scaled at 5 μM is 91 mL/min/kg and the half-life at 5 μM came to 27.3 min. Besides, in data set [2], the CLint scaled at 5 μM is 105 mL/min/kg and the half-life at 5 μM was found to be 16.6 min.

Turning to `C#Cc1cccc2nc([C@H](C)Nc3ncnc(N)c3-c3nc(C)no3)n(C3CC3)c(=O)c12` [Example 43, (S)-2-(1-((6-amino-5-(3-methyl-1,2,4-oxadiazol-5-yl)pyrimidin-4-1)amino)ethyl)-3-cyclopropyl-5-ethynylquinazolin-4(3H)-one], in data set [1], the CLint scaled at 5 μM is 111 mL/min/kg and the half-life at 5 μM amounted to 22.3 min. For the same molecule, in data set [2], the intrinsic metabolic clearance (CLint scaled) at 5 μM was 105 mL/min/kg and the half-life at 5 μM was 16.6 min.

Consider `CC#Cc1cccc2nc([C@H](C)Nc3ncnc(N)c3-c3nnn(C)n3)n(-c3ccccc3)c(=O)c12` [Example 12, (S)-2-(1-((6-amino-5-(2-methyl-2H-tetrazol-5-yl)pyrimidin-4-yl)amino)ethyl)-3-phenyl-5-(prop-1-yn-1-yl)quinazolin-4(3H)-one], for which, in data set [1], the CLint scaled at 5 μM is 70.9 mL/min/kg and the half-life at 5 μM was 35 min. In addition, in data set [2], the intrinsic metabolic clearance (CLint scaled) at 5 μM is 98 mL/min/kg and the half-life at 5 μM came to 17.7 min.

As for `CC#Cc1cccc2nc([C@H](C)Nc3ncnc(N)c3-c3noc(C)n3)n(-c3ccccc3)c(=O)c12` [Example 11, (S)-2-(1-((6-amino-5-(5-methyl-1,2,4-oxadiazol-3-yl)pyrimidin-4-yl)amino)ethyl)-3-phenyl-5-(prop-1-yn-1-yl)quinazolin-4(3H)-one], the CLint scaled at 5 μM in data set [1] was 97.4 mL/min/kg; in data set [2] it was 63 mL/min/kg. Further, the values for the half-life at 5 μM in data set [1] and in data set [2] were 25.5 min and 27.6 min, respectively.

As for `C#Cc1cccc2nc([C@H](C)Nc3ncnc(N)c3-c3nnn(C)n3)n(-c3ccccc3)c(=O)c12` [Example 48, (S)-2-(1-((6-amino-5-(2-methyl-2H-tetrazol-5-yl)pyrimidin-4-yl)amino)ethyl)-5-ethynyl-3-phenylquinazolin-4(3H)-one], in data set [1], the CLint scaled at 5 μM is 172 mL/min/kg and the half-life at 5 μM was determined as 14.5 min. Moreover, in data set [2], the CLint scaled at 5 μM is 311 mL/min/kg and the half-life at 5 μM came to 5.6 min.

`C[C@H](Nc1ncnc(N)c1-c1ncn(C)n1)c1nc2cccc(C#CCO)c2c(=O)n1-c1ccccc1` [Example 46, (S)-2-(1-((6-amino-5-(1-methyl-1H-1,2,4-triazol-3-yl)pyrimidin-4-yl)amino)ethyl)-5-(3-hydroxyprop-1-yn-1-yl)-3-phenylquinazolin-4(3H)-one]: in data set [1], the CLint scaled at 5 μM was 60.8 mL/min/kg and the half-life at 5 μM turned out to be 40.8 min. In addition, in data set [2], the intrinsic clearance (CLint scaled) at 5 μM is 49.2 mL/min/kg and the half-life at 5 μM amounted to 35.3 min.

For `C#Cc1cccc2nc([C@H](C)Nc3ncnc(N)c3-c3noc(C)n3)n(-c3ccccc3)c(=O)c12` [Example 47, (S)-2-(1-((6-amino-5-(5-methyl-1,2,4-oxadiazol-3-yl)pyrimidin-4-yl)amino)ethyl)-5-ethynyl-3-phenylquinazolin-4(3H)-one], in data set [1], the intrinsic metabolic clearance (CLint scaled) at 5 μM is 140 mL/min/kg and the half-life at 5 μM came to 17.8 min. In data set [2], the CLint scaled at 5 μM is 287 mL/min/kg and the half-life at 5 μM worked out at 6.05 min.

Consider `C#Cc1cccc2nc([C@H](C)Nc3ncnc(N)c3-c3nnc(C)o3)n(C3CC3)c(=O)c12` [Example 50, (S)-2-(1-((6-amino-5-(5-methyl-1,3 4-oxadiazol-2-yl)pyrimidin-4-yl)amino)ethyl)-3-cyclopropyl-5-ethynylquinazolin-4(3H)-one], for which, in data set [1], the CLint scaled at 5 μM was 34.8 mL/min/kg and the half-life at 5 μM came out at 71.4 min. Further, in data set [2], the intrinsic clearance (CLint scaled) at 5 μM was 47.7 mL/min/kg and the half-life at 5 μM was 36.5 min.
